Residues, ends and D or L forms follow the SMILES beside them.
Assay: Body weight in chronic contact dermatitis mouse model
Assay type: in vivo
Conditions: DNCB mice
Description: The 6-week-old male […] mouse used in the animal experiment is a species of ‘SKH-1 hairless’ and barely has body hair to ensure convenience in intuitively observing the skin condition, of which was divided, for experiment, into 3 groups out of 18 individuals in total (6 individuals for a negative control group/6 individuals for a positive control group/6 individuals for a novel peptide treated group).
After an adaptation period of about 2 weeks, 100 μL of 2,4-dinitrochlorobenzene (DNCB) prepared at a concentration of 1% in solution of acetone: olive oil (3:1) was applied onto the dorsal skin of mice at a certain time every day. After 1 week, if the incidence of contact dermatitis was observed, the DNCB was lowered to 0.5% and applied by 100 μL every 2 days, and the novel peptide was prepared in normal saline at a concentration of 1 mg/ml and applied by 100 μg daily for 3 weeks, while skin condition was observed every week during the experiment.

C[C@@H](O)[C@H](NC(=O)[C@@H](N)CCCCN)C(=O)N[C@@H](Cc1ccccc1)C(=O)N[C@@H](CCCNC(=N)N)C(=O)O [novel peptide, KTFR] (H-KTFR-OH)
changes in the body weight (100 μg applied daily for 3 weeks): no significant changes in the body weight | stress induced by the peptide (concluded from body weight): no stress was induced
